# Reference: paper PMC9529094, “Identification of natural cytochalasins as leads for neglected tropical diseases drug discovery” (PLoS ONE, 2022)
# Read-outs that look alike come from different tables or passages of the source.
# Assays:
# in vitro = type: cell-based; details: human; 72 h, resazurin; read-out: THP-1 CC50 (μM ± SD)
# Description: THP-1 (human monocyte cell line) cells were cultivated in RPMI medium supplemented with 10% foetal calf serum (FCS) (Cultilab, Campinas, SP, BR) and 1% penicillin and streptomycin (pen/strep—Sigma-Aldrich) at 37°C under 5% CO2, and HFF-1 (human fibroblast) and HepG2 (hepatocytes) cells were cultivated in DMEM without phenol red (Cultilab) supplemented with 10% FBS (Sigma-Aldrich) and 1% pen/strep at 37°C under 5% CO2.
# THP-1 cells were seeded at 2x10^4/well in 96-well culture plates in RPMI 1640 supplemented (10% FCS, 1% pen/strep) and incubated overnight (37°C, 5% CO2). The compounds were added in 2-fold serial dilutions (64–0.12 μM), and the plates were incubated as described before. Each compound concentration was evaluated in duplicate. All the plates included DOX (Sigma-Aldrich) as a positive control (10–0.01 μM) and untreated wells as a negative control (100% growth). After 72 h, 20 μL of resazurin (Sigma-Aldrich) was added, and the plates were incubated for 4 h. The absorbance was measured at 536 and 588 nm in an automated microplate reader SpectraMax Gemini, and the data were analysed using GraphPad Prism version 8.0 for CC50 value calculation. The percentage of nonviable cells was determined and compared to the negative control wells (100% growth).
# physchem [1] = type: physicochemical; details: pH 7.4, from LC retention time calibration; read-out: LogD 7.4 (Oct/buff)
# Description: To analyse cytochalasin lipophilicity, a methodology based on the retention time of molecules in stationary phase was used in LC-MS/MS (liquid chromatography-tandem mass spectrometry) Prominence UFLC (Shimadzu Corporation, Kyoto, Japan) and an interface with an LCMS-8045 triple quadrupole mass spectrometer (Shimadzu Corporation, Kyoto, Japan) with an electrospray ionization source (ESI). The chromatogram was obtained using a Supelco Ascentis express RP amide HPLC column (5 cm x 2.1 mm, 2.7 μM). The mobile phases consisted of 5% methanol in 10 mM ammonium acetate pH 7.4 (A) and 100% methanol (B). The mobile phase was eluted in binary gradient mode, and the gradient was as follows: 0 min, 95% A; 0.3 mins. 100% A; 5.2 mins. 0% A; 5.6 mins. 0% A; 5.8 mins. 100% A; 7.0 mins. And 100% A. The run time was 7 minutes, and the sample injection volume was 5 μL. Test compounds were prepared at 1.0 mg/mL by adding the stock solution at (1:1) mobile phases A:B (internal standard at 200 nM), and the DMSO concentration was lower than 2%. […]. The retention time (in minutes) of each of the eight standards was plotted against their LogD values. The resulting equation for the calibration curve (y = mx + b) was used to calculate the LogD values for the cytochalasins.
# [2] = test system: intracellular T. cruzi Tulahuen LacZ amastigotes; experiment: microbe, parasite or virus in culture; type: cell-based, Trypanosoma cruzi; details: for IC50: Trypanosoma cruzi, intracellular amastigotes, Tulahuen LacZ, HFF-1 host cells, 120 h, read-out: T. cruzi IC50 (μM ± SD); for SI^1 (CC50 HFF-1/IC50 T. cruzi) / SI^3 (CC50 HepG2/IC50 T. cruzi): selectivity index
# Description: The epimastigote forms of the T. cruzi Tulahuen strain, which expresses the E. coli β-galactosidase gene lacZ [11], were grown in liver infusion tryptone (LIT) supplemented with 10% FCS (Cultilab) and 1% pen/strep (Sigma–Aldrich) at 28°C. Metacyclogenesis from epimastigotes to trypomastigotes was induced by the incubation of the epimastigotes in Grace’s insect medium (Sigma-Aldrich, 28°C) every 5 days. After 5 days, the trypomastigote forms were used to infect the HFF-1 cells. The promastigote forms of L. infantum were maintained in Schneider’s insect medium (Sigma-Aldrich) supplemented with 10% FCS (Cultilab) and 1% pen/strep (Sigma-Aldrich) at 28°C and subcultured every 6 or 7 days.
# In vitro assays against T. cruzi were performed as described previously. HFF-1 human fibroblasts were seeded at 4x10^3/well in 96-well tissue culture plates in DMEM (Cultilab) without phenol red and then incubated overnight (37°C, 5% CO2). Next, trypomastigotes were added at 4x10^4/well, and the plates were incubated (37°C, 5% CO2). After 24 h, 2-fold serial dilutions of the test compounds were added at concentrations ranging from 64 to 0.12 μM, and the plates were then incubated (37°C, 5% CO2). Each compound concentration was evaluated in duplicate. All the plates included BZ (64–0.12 μM) (Sigma-Aldrich) as a positive control and untreated wells (100% growth) as a negative control. After 120 h, chlorophenol red β-D-galactopyranoside (CPRG, Sigma-Aldrich) was added to each well. The absorbance was measured at 570 nm in an automated SpectraMax 384 microplate reader (Sunnyvale, CA, USA), and the data were analysed using GraphPad Prism version 8.0 (San Diego, CA, USA) for IC50 value calculation.
# The analyses were performed using GraphPad Prism version 8.0 (GraphPad Software, San Diego, CA, USA). Both the IC50 and CC50 values were calculated by adjusting the sigmoid dose-response curves, and the selectivity index (SI) values were determined by CC50/IC50 [16]. Statistical analyses were performed using one-way ANOVA followed by Dunnett’s multiple comparison test.
# physchem [3] = type: physicochemical; details: aqueous buffer, kinetic from dmso stock
# Description: The plate was sealed and shaken for 24 hours (200 rpm, r.t.). The precipitates on the incubation plate were removed by centrifugation (15 min., 3000 rpm, r.t.). The supernatant fractions were quantified by LC-MS/MS (liquid chromatography-tandem mass spectrometry) Prominence UFLC (Shimadzu Corporation, Kyoto, Japan) and interface with an LCMS-8045 triple quadrupole mass spectrometer (Shimadzu Corporation, Kyoto, Japan) with an electrospray ionization source (ESI). From a 10 mM standard solution, an intermediate standard dilution of 0.5 mM in a 1:1 acetonitrile:water solution was prepared. Calibration curves were prepared for each cytochalasin by diluting the intermediate standard several times to reach the desired concentrations of 50, 40, 20, 2, and 1 μM. The resulting equation for the calibration curve (y = mx + b) was used to calculate the experimental concentration values for the cytochalasins. The chromatogram for analysis was obtained on a Supelco Ascentis express C18 column (3 cm x 2.1 mm, 5 μM). The mobile phases consisted of water + 0.05% formic acid (A) and acetonitrile + 0.05% formic acid (B). The mobile phase was eluted in binary gradient mode, and the gradient was as follows: 0 min, 98% A; 1.2 mins. 2% A; 2.0 mins: 2% A; and re-equilibration time: 0.6 min., 98% A. The run time was 2 minutes, the sample injection volume was 5 μL, and the flow rate was 0.6 mL/min.
# [4] = PBS pH 2.0, 24 h, read-out: Kinetic Solubility pH 2.0 (LogS) (converted)
# [5] = PBS pH 7.4, 24 h, read-out: Kinetic Solubility pH 7.4 (LogS) (converted)
SMILES,CC50 (in vitro),chromatographic logD (physchem [1]),IC50 [2],SI^1 (CC50 HFF-1/IC50 T. cruzi) [2],SI^3 (CC50 HepG2/IC50 T. cruzi) [2],solubility kinetic (physchem [3]; [4]),solubility kinetic (physchem [3]; [5])
C=C1[C@@H](C)[C@H]2[C@H](Cc3ccccc3)NC(=O)[C@]23OC(=O)/C=C/C(=O)CCC[C@@H](C)C/C=C/[C@H]3[C@@H]1O [Cytochalasin A],17 ± 1.34 µM,3.907 ± 0.014,3.02 ± 2.16 µM,8.96,6.99,39.8 µM,69.2 µM
C=C1[C@@H](C)[C@H]2[C@H](Cc3ccccc3)NC(=O)[C@]23OC(=O)/C=C/[C@H](O)CCC[C@@H](C)C/C=C/[C@H]3[C@@H]1O [Cytochalasin B],109 ± 2.4 µM,3.361 ± 0.008,16.9 ± 1.47 µM,1.29,2.74,77.6 µM,77.6 µM
CC(=O)OC1C=CC(C)(O)C(=O)C(C)CC=CC2C(O)C(C)=C(C)C3C(Cc4ccccc4)NC(=O)C123 (stereo not shown) [Cytochalasin C],84.8 ± 6.84 µM,3.434 ± 0.003,10.2 ± 1.13 µM,7.45,2.19,17 µM,46.8 µM
C=C1[C@@H](C)[C@H]2[C@H](Cc3ccccc3)NC(=O)[C@]23[C@H](OC(C)=O)/C=C/[C@@](C)(O)C(=O)[C@@H](C)C/C=C/[C@H]3[C@@H]1O [Cytochalasin D],122 ± 11.3 µM,3.043 ± 0.004,20.2 ± 3.27 µM,4.78,6.11,42.7 µM,46.8 µM
